ChEMBL document CHEMBL4507276 (2021)

Legend:
[1] = target: Atypical kinase COQ8B, mitochondrial (Homo sapiens) (UniProt Q96D53); conditions: Compound concentration 1000.0 nM
[2] = target: Cannabinoid receptor 1 (Homo sapiens) (UniProt P21554); assay: CB1 Eurofins-Panlabs selectivity data (BI); conditions: Compound concentration 10.0 uM
[3] = target: Dual specificity protein kinase CLK1 (Homo sapiens) (UniProt P49759); assay: CLK1 Invitrogen selectivity data (BI); conditions: Compound concentration 3.0 uM
[4] = target: Dual specificity protein kinase CLK4 (Homo sapiens) (UniProt Q9HAZ1); assay: CLK4 Invitrogen selectivity data (BI); conditions: Compound concentration 3.0 uM
[5] = target: Dual specificity tyrosine-phosphorylation-regulated kinase 1B (Homo sapiens) (UniProt Q9Y463); assay: DYRK1B Invitrogen selectivity data (BI); conditions: Compound concentration 3.0 uM
Dual specificity tyrosine-phosphorylation-regulated kinase 1B (Homo sapiens), sequence (Q9Y463 whole entry, looked up): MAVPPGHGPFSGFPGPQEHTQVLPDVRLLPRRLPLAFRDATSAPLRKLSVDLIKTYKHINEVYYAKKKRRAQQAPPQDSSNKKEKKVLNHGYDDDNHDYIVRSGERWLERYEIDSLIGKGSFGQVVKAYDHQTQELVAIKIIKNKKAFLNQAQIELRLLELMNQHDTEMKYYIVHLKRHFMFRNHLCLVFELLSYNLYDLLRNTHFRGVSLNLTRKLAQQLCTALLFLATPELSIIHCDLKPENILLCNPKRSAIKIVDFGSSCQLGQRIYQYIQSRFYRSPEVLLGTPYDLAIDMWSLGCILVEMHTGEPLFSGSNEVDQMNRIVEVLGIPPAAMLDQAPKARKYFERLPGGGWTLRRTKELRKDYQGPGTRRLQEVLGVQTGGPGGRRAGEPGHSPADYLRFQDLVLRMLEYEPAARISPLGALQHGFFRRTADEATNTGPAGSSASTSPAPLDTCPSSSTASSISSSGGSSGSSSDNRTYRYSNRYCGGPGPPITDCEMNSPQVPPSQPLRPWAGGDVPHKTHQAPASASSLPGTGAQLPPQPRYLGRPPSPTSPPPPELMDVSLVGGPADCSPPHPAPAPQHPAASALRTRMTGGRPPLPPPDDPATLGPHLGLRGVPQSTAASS

[6] = target: Activin receptor type-2B (Homo sapiens) (UniProt Q13705); assay: ACVR2B Invitrogen selectivity data (BI); conditions: Compound concentration 3.0 uM
[7] = target: LIM domain kinase 1 (Homo sapiens) (UniProt P53667); assay: LIMK1 Invitrogen selectivity data (BI); conditions: Compound concentration 3.0 uM
[8] = target: Thyroid hormone receptor alpha (Rattus norvegicus) (UniProt P63059); assay: TRTH_AGON Cerep selectivity data (BI); conditions: filed as agonist, Compound concentration 20.0 uM
Thyroid hormone receptor alpha (Rattus norvegicus), sequence (P63059 whole entry): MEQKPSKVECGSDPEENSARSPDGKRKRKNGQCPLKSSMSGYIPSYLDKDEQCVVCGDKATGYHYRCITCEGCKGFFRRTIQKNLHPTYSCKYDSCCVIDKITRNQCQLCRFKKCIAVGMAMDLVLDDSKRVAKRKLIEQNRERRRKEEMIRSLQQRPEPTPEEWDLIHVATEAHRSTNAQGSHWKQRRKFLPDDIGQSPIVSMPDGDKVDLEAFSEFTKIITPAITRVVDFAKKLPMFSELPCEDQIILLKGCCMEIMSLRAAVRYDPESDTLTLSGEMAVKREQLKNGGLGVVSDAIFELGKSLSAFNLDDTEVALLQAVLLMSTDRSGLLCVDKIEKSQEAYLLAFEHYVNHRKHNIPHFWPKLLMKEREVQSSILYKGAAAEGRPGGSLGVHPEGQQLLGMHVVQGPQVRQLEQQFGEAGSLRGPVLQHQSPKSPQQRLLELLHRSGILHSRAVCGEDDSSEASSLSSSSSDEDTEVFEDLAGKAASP

[9] = target: Tyrosine-protein kinase Lyn (Homo sapiens) (UniProt P07948); assay: LYN B Invitrogen selectivity data (BI); conditions: Compound concentration 3.0 uM
[10] = target: Mitogen-activated protein kinase 1 (Homo sapiens) (UniProt P28482); assay: MAPK1 Invitrogen selectivity data (BI); conditions: Compound concentration 3.0 uM
Mitogen-activated protein kinase 1 (Homo sapiens), sequence (P28482 whole entry): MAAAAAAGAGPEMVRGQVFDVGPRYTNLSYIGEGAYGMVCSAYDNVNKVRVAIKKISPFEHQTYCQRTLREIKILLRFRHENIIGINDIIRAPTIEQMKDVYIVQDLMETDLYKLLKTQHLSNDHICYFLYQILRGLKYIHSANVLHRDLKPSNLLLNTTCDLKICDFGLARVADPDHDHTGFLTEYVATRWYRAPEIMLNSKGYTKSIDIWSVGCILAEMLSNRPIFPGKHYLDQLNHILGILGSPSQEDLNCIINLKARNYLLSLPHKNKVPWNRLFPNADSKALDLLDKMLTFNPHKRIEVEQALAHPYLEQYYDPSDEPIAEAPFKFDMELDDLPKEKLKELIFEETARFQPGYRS

[11] = target: Glutamate receptor ionotropic, kainate 1 (Rattus norvegicus) (UniProt P22756); assay: KAINATE/RA Cerep selectivity data (BI); conditions: Compound concentration 20.0 uM
[12] = target: T1, Activin receptor type-1 (Homo sapiens) (UniProt Q04771); assay: ACVR1 Invitrogen selectivity data (BI); conditions: Compound concentration 3.0 uM
T1 sequence (whole entry): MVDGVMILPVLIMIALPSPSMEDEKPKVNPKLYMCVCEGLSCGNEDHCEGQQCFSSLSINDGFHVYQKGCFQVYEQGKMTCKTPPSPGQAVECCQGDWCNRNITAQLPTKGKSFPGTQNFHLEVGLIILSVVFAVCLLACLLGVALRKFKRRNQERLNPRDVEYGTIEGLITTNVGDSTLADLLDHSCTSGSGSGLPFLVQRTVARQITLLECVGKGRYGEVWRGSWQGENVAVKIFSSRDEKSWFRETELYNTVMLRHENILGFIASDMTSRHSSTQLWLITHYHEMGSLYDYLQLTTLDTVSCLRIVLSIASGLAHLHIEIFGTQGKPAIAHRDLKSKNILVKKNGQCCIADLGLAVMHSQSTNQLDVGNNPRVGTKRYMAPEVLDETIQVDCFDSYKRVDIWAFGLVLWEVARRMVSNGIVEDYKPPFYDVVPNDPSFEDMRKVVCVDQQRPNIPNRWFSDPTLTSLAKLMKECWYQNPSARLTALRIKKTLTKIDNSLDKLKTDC

[13] = target: Phosphatidylinositol 3-kinase regulatory subunit gamma (Bos taurus) (UniProt O46404); assay: PROTKINP55 Cerep selectivity data (BI); conditions: Compound concentration 20.0 uM
[14] = test system: Proto-oncogene tyrosine-protein kinase receptor Ret (Homo sapiens), P07949 [Y791F]; assay: RET Y791F Invitrogen selectivity data (BI); conditions: Compound concentration 3.0 uM
Proto-oncogene tyrosine-protein kinase receptor Ret (Homo sapiens), P07949 [Y791F], sequence (P07949 whole entry Y791F): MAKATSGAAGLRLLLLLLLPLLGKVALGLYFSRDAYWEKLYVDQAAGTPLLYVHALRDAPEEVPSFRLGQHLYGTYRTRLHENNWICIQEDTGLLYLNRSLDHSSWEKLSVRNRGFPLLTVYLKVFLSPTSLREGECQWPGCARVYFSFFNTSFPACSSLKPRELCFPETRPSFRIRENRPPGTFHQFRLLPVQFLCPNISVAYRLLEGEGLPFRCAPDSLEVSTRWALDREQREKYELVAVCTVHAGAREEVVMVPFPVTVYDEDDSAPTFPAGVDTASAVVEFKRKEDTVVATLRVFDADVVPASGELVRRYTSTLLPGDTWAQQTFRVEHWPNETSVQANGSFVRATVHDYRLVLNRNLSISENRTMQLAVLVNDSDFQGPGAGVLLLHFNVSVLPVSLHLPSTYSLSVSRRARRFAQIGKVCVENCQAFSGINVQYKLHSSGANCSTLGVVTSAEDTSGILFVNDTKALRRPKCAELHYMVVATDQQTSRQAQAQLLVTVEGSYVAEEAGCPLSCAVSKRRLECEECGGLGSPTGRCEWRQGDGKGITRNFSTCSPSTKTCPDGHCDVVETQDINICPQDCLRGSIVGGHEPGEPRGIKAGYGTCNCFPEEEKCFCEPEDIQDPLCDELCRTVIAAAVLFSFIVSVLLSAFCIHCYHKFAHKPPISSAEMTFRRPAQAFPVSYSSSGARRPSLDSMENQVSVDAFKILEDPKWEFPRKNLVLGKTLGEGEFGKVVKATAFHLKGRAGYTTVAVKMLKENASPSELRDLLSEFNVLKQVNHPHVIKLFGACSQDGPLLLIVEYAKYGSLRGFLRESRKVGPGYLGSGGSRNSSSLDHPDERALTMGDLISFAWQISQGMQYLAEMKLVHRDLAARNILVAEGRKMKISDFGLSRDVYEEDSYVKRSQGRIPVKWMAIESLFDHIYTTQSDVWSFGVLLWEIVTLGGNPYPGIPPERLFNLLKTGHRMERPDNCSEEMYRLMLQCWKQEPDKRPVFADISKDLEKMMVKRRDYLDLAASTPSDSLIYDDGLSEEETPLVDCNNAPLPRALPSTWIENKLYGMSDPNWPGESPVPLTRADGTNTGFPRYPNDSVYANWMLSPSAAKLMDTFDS

[15] = target: T2, Serine/threonine-protein kinase D3 (Homo sapiens) (UniProt O94806); assay: PRKCN Invitrogen selectivity data (BI); conditions: Compound concentration 3.0 uM
T2 sequence (whole entry): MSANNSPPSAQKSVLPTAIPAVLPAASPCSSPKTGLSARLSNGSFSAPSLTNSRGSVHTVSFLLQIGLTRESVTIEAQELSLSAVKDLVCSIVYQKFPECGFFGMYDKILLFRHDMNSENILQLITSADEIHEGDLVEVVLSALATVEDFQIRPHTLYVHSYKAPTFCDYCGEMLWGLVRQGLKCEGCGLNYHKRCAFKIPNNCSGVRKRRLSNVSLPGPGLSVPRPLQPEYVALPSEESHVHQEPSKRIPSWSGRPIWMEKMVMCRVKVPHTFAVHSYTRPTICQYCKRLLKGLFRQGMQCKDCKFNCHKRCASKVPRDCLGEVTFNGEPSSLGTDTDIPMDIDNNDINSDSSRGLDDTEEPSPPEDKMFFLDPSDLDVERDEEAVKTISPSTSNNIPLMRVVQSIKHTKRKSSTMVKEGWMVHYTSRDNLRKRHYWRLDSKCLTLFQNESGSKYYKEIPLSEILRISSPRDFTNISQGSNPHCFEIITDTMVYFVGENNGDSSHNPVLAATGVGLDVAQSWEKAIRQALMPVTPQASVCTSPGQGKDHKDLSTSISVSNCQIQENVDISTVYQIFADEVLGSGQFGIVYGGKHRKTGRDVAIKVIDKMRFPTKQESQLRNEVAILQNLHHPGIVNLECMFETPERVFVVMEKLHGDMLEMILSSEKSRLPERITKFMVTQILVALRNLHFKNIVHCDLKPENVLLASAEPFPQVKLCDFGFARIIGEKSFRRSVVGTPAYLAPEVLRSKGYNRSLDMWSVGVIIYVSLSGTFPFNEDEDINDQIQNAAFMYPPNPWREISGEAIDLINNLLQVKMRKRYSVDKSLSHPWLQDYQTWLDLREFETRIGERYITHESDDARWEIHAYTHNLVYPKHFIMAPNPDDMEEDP

[16] = target: Casein kinase II subunit alpha' (Homo sapiens) (UniProt P19784); assay: CSNK2A2 Invitrogen selectivity data (BI); conditions: Compound concentration 3.0 uM
Casein kinase II subunit alpha' (Homo sapiens), sequence (P19784 whole entry, looked up): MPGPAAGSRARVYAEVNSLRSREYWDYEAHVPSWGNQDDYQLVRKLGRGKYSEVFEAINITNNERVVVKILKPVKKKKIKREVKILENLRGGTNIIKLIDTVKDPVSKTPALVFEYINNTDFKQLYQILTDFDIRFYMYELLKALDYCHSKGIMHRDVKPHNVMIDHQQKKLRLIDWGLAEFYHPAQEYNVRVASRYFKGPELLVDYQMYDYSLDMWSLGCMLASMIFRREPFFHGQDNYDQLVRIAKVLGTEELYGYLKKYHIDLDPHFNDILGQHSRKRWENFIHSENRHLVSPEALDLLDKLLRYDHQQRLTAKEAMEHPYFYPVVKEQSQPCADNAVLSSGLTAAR

[17] = target: Serine/threonine-protein kinase PLK3 (Homo sapiens) (UniProt Q9H4B4); assay: PLK3 Invitrogen selectivity data (BI); conditions: Compound concentration 3.0 uM
[18] = target: Serine/threonine-protein kinase PAK 6 (Homo sapiens) (UniProt Q9NQU5); assay: PAK6 Invitrogen selectivity data (BI); conditions: Compound concentration 3.0 uM
[19] = target: Ephrin type-A receptor 2 (Homo sapiens) (UniProt P29317); assay: EPHA2 Invitrogen selectivity data (BI); conditions: Compound concentration 3.0 uM
Ephrin type-A receptor 2 (Homo sapiens), sequence (P29317 whole entry): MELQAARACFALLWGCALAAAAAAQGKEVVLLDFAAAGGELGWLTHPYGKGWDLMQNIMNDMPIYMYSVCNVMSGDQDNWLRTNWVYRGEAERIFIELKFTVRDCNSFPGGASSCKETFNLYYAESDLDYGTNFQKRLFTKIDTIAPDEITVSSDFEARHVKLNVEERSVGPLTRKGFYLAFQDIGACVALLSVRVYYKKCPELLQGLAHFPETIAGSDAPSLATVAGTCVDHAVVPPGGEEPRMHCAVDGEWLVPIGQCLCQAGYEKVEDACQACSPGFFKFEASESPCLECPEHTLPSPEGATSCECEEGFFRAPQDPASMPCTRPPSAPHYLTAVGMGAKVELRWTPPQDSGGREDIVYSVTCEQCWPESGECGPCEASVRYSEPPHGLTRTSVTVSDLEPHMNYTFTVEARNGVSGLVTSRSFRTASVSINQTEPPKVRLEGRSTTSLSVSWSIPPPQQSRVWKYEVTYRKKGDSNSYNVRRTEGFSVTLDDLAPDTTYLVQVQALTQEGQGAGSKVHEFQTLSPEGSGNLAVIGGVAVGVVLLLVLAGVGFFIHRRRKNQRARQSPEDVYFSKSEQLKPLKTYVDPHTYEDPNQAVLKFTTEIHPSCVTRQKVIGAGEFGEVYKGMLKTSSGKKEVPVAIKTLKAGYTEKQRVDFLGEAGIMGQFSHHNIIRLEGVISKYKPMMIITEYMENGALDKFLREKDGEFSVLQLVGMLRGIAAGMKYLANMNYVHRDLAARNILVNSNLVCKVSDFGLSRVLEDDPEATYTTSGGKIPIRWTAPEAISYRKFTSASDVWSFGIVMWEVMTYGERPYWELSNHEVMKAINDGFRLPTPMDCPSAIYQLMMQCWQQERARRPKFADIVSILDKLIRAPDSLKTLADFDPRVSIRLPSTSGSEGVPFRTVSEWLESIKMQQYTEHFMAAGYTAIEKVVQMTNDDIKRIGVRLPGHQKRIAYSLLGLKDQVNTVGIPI

[20] = target: T3, Mitogen-activated protein kinase 12 (Homo sapiens) (UniProt P53778); assay: MAPK12 Invitrogen selectivity data (BI); conditions: Compound concentration 3.0 uM
T3 sequence (whole entry): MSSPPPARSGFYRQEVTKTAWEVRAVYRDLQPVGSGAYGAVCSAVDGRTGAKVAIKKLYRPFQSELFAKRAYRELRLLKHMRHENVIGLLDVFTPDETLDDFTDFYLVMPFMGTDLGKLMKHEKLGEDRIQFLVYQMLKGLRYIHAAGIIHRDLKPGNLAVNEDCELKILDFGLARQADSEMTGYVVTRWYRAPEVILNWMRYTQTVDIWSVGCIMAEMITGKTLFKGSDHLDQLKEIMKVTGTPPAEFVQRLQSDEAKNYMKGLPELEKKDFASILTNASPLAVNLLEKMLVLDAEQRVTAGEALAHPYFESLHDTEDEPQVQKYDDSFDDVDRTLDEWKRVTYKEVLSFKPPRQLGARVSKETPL

[21] = test system: Hepatocyte growth factor receptor (Homo sapiens), P08581 [M1250T]; assay: MET M1250T Invitrogen selectivity data (BI); conditions: Compound concentration 3.0 uM
[22] = target: SRSF protein kinase 3 (Homo sapiens) (UniProt Q9UPE1); assay: STK23 Invitrogen selectivity data (BI); conditions: Compound concentration 3.0 uM
SRSF protein kinase 3 (Homo sapiens), sequence (Q9UPE1 whole entry): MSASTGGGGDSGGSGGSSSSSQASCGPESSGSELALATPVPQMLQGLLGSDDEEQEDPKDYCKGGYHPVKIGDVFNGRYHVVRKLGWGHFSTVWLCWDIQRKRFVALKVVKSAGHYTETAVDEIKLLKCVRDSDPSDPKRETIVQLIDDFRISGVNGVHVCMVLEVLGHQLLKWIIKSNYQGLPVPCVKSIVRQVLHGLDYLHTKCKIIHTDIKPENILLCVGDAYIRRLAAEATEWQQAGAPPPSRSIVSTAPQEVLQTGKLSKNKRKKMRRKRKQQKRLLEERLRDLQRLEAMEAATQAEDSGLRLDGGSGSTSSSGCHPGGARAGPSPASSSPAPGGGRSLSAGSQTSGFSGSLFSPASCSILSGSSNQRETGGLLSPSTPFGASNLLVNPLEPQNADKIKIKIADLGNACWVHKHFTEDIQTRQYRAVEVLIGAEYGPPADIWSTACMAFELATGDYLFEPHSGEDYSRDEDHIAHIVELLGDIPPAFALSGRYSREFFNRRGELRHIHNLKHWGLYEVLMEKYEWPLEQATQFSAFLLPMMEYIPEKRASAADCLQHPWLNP

Measured: residual activity

Atypical kinase COQ8B, mitochondrial (Homo sapiens), sequence (Q96D53 whole entry): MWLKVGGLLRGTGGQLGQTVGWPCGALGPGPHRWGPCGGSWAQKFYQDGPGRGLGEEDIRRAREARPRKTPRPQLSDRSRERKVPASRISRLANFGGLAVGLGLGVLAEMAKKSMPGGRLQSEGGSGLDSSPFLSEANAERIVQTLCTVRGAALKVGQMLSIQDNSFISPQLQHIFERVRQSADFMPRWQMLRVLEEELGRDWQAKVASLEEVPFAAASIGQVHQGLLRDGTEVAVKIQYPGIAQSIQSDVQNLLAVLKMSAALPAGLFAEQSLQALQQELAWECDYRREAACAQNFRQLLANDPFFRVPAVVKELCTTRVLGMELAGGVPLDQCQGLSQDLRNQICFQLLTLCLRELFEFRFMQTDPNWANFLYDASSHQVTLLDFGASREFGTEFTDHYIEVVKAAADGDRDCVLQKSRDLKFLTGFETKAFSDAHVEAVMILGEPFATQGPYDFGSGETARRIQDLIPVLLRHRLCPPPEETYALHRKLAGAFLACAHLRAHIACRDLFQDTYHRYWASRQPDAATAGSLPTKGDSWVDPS

CN(C)C(=O)Cn1cc(-c2nc(C3(c4ccc(-c5cnc(N)nc5)cc4)CC3)no2)cn1 [BI 0153]
inactive: [1] 100%

CN(C)C(=O)Cn1cc(-c2nc([C@@](C)(c3ccc(-c4cnc(N)nc4)cc3)C3CC3)no2)cn1 [BI 665915]
inactive: [2] 91% | [3] 96.5% | [4] 95% | [5] 104% | [6] 97% | [7] 96% | [8] 129% | [9] 89% | [10] 100% | [11] 82% | [12] 79% | [13] 98% | [14] 60% | [15] 94.5% | [16] 94.5% | [17] 98% | [18] 93.5% | [19] 99% | [20] 91.5% | [21] 105% | [22] 96.5%
